Assays:
[1] = DPPH radical scavenging assay; conditions: positive controls, each time point and concentration (0.03 and 0.06 mg/mL)
Protocol: Briefly, the compounds were dissolved at a concentration of 1 mg/mL in absolute methanol, and a dilution was prepared. […] Then, 100 µL of the DPPH solution was added to 100 µL of the compounds’ solution to a final concentration of 0.03 mg/mL or 0.06 mg/mL, and the decolorization of the purple radical to the yellowish reduced form was followed by recording the absorbance at 517 nm. Ascorbic acid (Asc) and Trolox were used as positive controls. Both of them, Asc and Trolox, were purchased from Sigma-Aldrich. Determinations were recorded at eight different time intervals from 0 to 120 min on a BioTeck PowerWave XS spectrophotometer, and the data were collected using KCJunior version 1.41. software. All the measurements were carried out in triplicate. Results are expressed as the percentage of the radical scavenged, calculated using the following formula: % DPPH radical scavenging = [(Acontrol − Asample)/Acontrol] × 100, wherein Acontrol refers to the absorbance of the negative control and Asample refers to the absorbance of the tested compounds.

HT-29 colon cancer cells = tested on: HT-29 colon cancer cells; design: method as in PMID 26750401, PMID 32987314, PMID 33799070, PMID 36257283; conditions: MTT; parent NSAIDs for reference, some values obtained from the literature; cited from earlier work
A549 lung cancer cells = tested on: A549 lung cancer cells; design: method as in PMID 26750401, PMID 32987314, PMID 33799070, PMID 36257283; conditions: MTT; parent NSAIDs for reference, some values obtained from the literature; cited from earlier work
[2] = tested on: PC-3 prostate cancer cells; design: method as in PMID 26750401, PMID 32987314, PMID 33799070, PMID 36257283; conditions: MTT; parent NSAIDs for reference, some values obtained from the literature; cited from earlier work
[3] = tested on: T-47D breast cancer cells; design: method as in PMID 26750401, PMID 32987314, PMID 33799070, PMID 36257283; conditions: MTT; parent NSAIDs for reference, some values obtained from the literature; cited from earlier work
[4] = tested on: HCT-116 colon cancer cells; design: method as in PMID 26750401, PMID 32987314, PMID 33799070, PMID 36257283; conditions: MTT; parent NSAIDs for reference, some values obtained from the literature; cited from earlier work
[5] = tested on: MDA-MB-231 breast cancer cells; design: method as in PMID 26750401, PMID 32987314, PMID 33799070, PMID 36257283; conditions: MTT; parent NSAIDs for reference, some values obtained from the literature; cited from earlier work
[6] = tested on: DU-145 prostate cancer cells; design: method as in PMID 26750401, PMID 32987314, PMID 33799070, PMID 36257283; conditions: MTT; parent NSAIDs for reference, some values obtained from the literature; cited from earlier work
H1299 lung cancer cells = tested on: H1299 lung cancer cells; design: method as in PMID 26750401, PMID 32987314, PMID 33799070, PMID 36257283; conditions: MTT; parent NSAIDs for reference, some values obtained from the literature; cited from earlier work

| SMILES | DPPH radical scavenging activity [1] | IC50 (HT-29 colon cancer cells) | IC50 (A549 lung cancer cells) | IC50 [2] | IC50 [3] | IC50 [4] | IC50 [5] | IC50 [6] | IC50 (H1299 lung cancer cells) |
| --- | --- | --- | --- | --- | --- | --- | --- | --- | --- |
| O=C1O[C@H]([C@@H](O)CO)C(O)=C1O [Asc, Ascorbic acid, reference compound] | maximal scavenging activity | – | – | – | – | – | – | – | – |
| Cc1c(C)c2c(c(C)c1O)CCC(C)(C(=O)O)O2 (stereo not shown) [Trolox, reference compound] | maximal scavenging activity | – | – | – | – | – | – | – | – |
| CC(C)Cc1ccc(C(C)C(=O)O)cc1 (stereo not shown) [Ibup, ibuprofen] | – | > 50 µM | > 50 µM | > 50 µM | > 50 µM | > 50 µM | > 50 µM | > 50 µM | > 50 µM |
| COc1ccc2cc([C@H](C)C(=O)O)ccc2c1 [Nap, naproxen] | – | > 50 µM | > 50 µM | > 50 µM | > 50 µM | > 50 µM | > 50 µM | > 50 µM | > 50 µM |
| CC(=O)Oc1ccccc1C(=O)O [ASA, aspirin] | – | > 50 µM | > 50 µM | > 50 µM | > 50 µM | > 50 µM | > 50 µM | > 50 µM | > 50 µM |
| COc1ccc2c(c1)c(CC(=O)O)c(C)n2C(=O)c1ccc(Cl)cc1 [Ind, indomethacin] | – | > 50 µM | > 50 µM | > 50 µM | > 50 µM | > 50 µM | > 50 µM | > 50 µM | > 50 µM |
